Data taken from US8629272B2, “Tricyclic pyrimidine derivatives as wnt antagonists” (Deutsches Krebsforschungszentrum, priority 2009, dated 2014).

Experiments:
Type in all cases: cell-based
Wnt signalling pathway = assay: Wnt-sensitive reporter gene assay (6xTCF-luciferase, pTOP-FLASH) in Hek293T cells; design: Normalized Wnt pathway (inhibitory) activity: scale not given here; conditions: for IC50: Homo sapiens, HEK-293T, Hek293T, 24 h incubation, 5 nM-100 microM, read-out: IC50 of the Wnt signalling pathway inhibiting activity
Experimental: To screen for small-molecule modulators of the Wnt signalling pathway, a reporter gene based assay describing the modulation of the TCF4 transcription factor was used. More specifically 4000 Hek293T cells were seeded into 384 high density plates. 24 h after seeding a Wnt-sensitive reporter (6×TCF-luciferase (Firefly) (pTOP-FLASH; “Armadillo co activates transcription driven by the product of the drosophila segment polarity gene dTCF”, Cell, 1997, 88(6), pages 789-799) and constitutively expressed control reporter (Renilla luciferase pCMV-RL) were transfected into Hek293T. Wnt signaling was stimulated by cotransfecting mouse Wnt1, mouse Frizzled 8 and human LRP6 according to “Casein kinase 1 gamma couples Wnt receptor activation to cytoplasmic signal transduction”, Nature, 2005, 438 (7069), pages 867-872. 24 h after pathway stimulation compounds were added at a concentration of 10 microM and allowed to incubate for 24 h. For the evaluation of the IC50 the compound was applied in increasing concentrations yielding final concentrations per well of 5 nM-100 microM.

human fibroblasts HS-68 = assay: Cell line specific cytotoxicity, count of Hoechst labeled nuclei, normal cells HS68
Experimental: For examination of cell line-specific cytotoxicity, compounds were applied to human colorectal cancer cells (HCT116, denoted (1); SW480, denoted (2); Dld-1, denoted (3)) and human fibroblasts (HFF-1, denoted (4); HS-68, denoted (5)), cultured in Mc Coy's (1) and Dulbecco's Modified Eagles Medium (2-5), supplemented with 10% ((1)-(3)) and 20% ((4), (5)) fetal calf serum and 1% penicillin/streptomycin. Cells were grown in T75 flasks at 37° C., 5% CO2 and trypsinized when 60-80% confluent by adding 2 ml of 0.25% Trypsin-EDTA solution. Cells were then re-suspended into culture medium and approx. 750 cells, suspended in 45 microl medium, were plated into each well of a black 384-well plate for fluorescence imaging experiments. […] Compound incubation was terminated by (a) fixation and (b) permeabilisation of cells, followed by (c) fluorescence labeling of cell nuclei for cytometric quantification or by immunocytochemistry for microscopic evaluation of cell morphology. The three steps were performed by replacing the solution of the previous step in each well of a 384-well plate by (a) 30 microl PBS (phosphate buffered saline) containing 5% PFA (paraformaldehyde), (b) 30 microl PBS containing 0.2% TritonX-100 and (c) 10 microl PBS containing Hoechst-33342 for cytometry or Hoechst-33342, FITC (fluorescein isothiocyanate-) labeled α-tubulin antibodies and TRITC-(tetramethylrhodamine isothiocyanate-) labeled phalloidin antibodies for microscopy. Solutions were incubated for 15 (a,b) and 30 min (c) in the dark at room temperature. Cells were washed twice between each step with 30 microl PBS. The assay system was miniaturized and adapted to automated workflow using liquid-handling robotics.
Cell line-specific cytotoxicity was quantified by counting the number of Hoechst labeled nuclei per well of a 384-well plate using a plate cytometer. Data obtained with the cytometer was analysed using standard data analysis software. […]

HepG2 = assay: Cytotoxicity in HepG2, CellTiterGlo; conditions: 24 h
Experimental: (§1) For examination of cytotoxicity in these cancer cell lines the commercial available CellTiterGlo® Reagent (Promega, USA) was used according to the manufactor. Compounds were applied to Hek293T (denoted (1)) or HepG2 (denoted (2)), cultured in Dulbecco's Modified Eagles Medium, supplemented with 10% fetal calf serum and 1% penicillin/streptomycin. Cells were grown in T75 flasks at 37° C., 5% CO2 and trypsinized when 60-80% confluent by adding 2 ml of 0.25% Trypsin-EDTA solution. Cells were then re-suspended into culture medium yielding approx. 4000 cells (1) or 4500 cells (2), suspended in 30 microl medium. 48 h after cell seeding, compounds were added to yield the desired final concentrations. 24 h after compound addition cytotoxicity was evaluated. For this purpose the media was removed and CellTiterGlo® was added according to the manufactors manual. In this assay the luciferase emission readout is directly correlated with the cellular amount of ATP, low luciferase emission thus is reflecting cytotoxicity of a compound. For the evaluation of the IC50 the compound was applied in increasing concentrations yielding final concentrations per well of 5 nM-100 microM.

Hek293T = assay: Cytotoxicity in Hek293T, CellTiterGlo; conditions: 24 h
Experimental: as §1

CCOC(=O)C1=C(c2ccccc2)c2c(n(-c3ccccc3)c(=O)n3c(-c4cccc(OC)c4)nnc23)NC1C (stereo not shown) [Example 16, 3-(3-Methoxy-phenyl)-7-methyl-4-oxo-5,9-diphenyl-4,5,6,7-tetrahydro-1,2,3a,5,6-pentaaza-cyclopenta[a]naphthalene-8-carboxylic acid ethyl ester]
Normalized Wnt pathway (inhibitory) activity (Wnt signalling pathway; 0.005 microM): 0.9907
Normalized Wnt pathway (inhibitory) activity (Wnt signalling pathway; 0.015 microM): 1.2275
Normalized Wnt pathway (inhibitory) activity (Wnt signalling pathway; 0.046 microM): 1.0533
Normalized Wnt pathway (inhibitory) activity (Wnt signalling pathway; 0.137 microM): 1.0070
Normalized Wnt pathway (inhibitory) activity (Wnt signalling pathway; 0.412 microM): 1.0435
Normalized Wnt pathway (inhibitory) activity (Wnt signalling pathway; 1.235 microM): 0.9565
Normalized Wnt pathway (inhibitory) activity (Wnt signalling pathway; 3.704 microM): 0.5445
Normalized Wnt pathway (inhibitory) activity (Wnt signalling pathway; 11.111 microM): 0.3755
Normalized Wnt pathway (inhibitory) activity (Wnt signalling pathway; 33.333 microM): 0.3063
Normalized Wnt pathway (inhibitory) activity (Wnt signalling pathway; 100.000 microM): 0.1990
IC50 (Wnt signalling pathway): 2.94 µM
Normalized cell count (HS68) (human fibroblasts HS-68; 0.005 micoM): 1
Normalized cell count (HS68) (human fibroblasts HS-68; 0.015 micoM): 0.9904
Normalized cell count (HS68) (human fibroblasts HS-68; 0.046 micoM): 1.038
Normalized cell count (HS68) (human fibroblasts HS-68; 0.137 micoM): 1.056
Normalized cell count (HS68) (human fibroblasts HS-68; 0.412 micoM): 1.111
Normalized cell count (HS68) (human fibroblasts HS-68; 1.235 micoM): 1.051
Normalized cell count (HS68) (human fibroblasts HS-68; 3.704 micoM): 1.175
Normalized cell count (HS68) (human fibroblasts HS-68; 11.111 micoM): 1.144
Normalized cell count (HS68) (human fibroblasts HS-68; 33.333 micoM): 0.8005
Normalized cell count (HS68) (human fibroblasts HS-68; 100.000 micoM): 0.9046
Normalized toxicity values (HepG2) (HepG2; 0.005 microM): 1.0275
Normalized toxicity values (HepG2) (HepG2; 0.015 microM): 0.9130
Normalized toxicity values (HepG2) (HepG2; 0.046 microM): 0.9210
Normalized toxicity values (HepG2) (HepG2; 0.137 microM): 0.9210
Normalized toxicity values (HepG2) (HepG2; 0.412 microM): 0.9183
Normalized toxicity values (HepG2) (HepG2; 1.235 microM): 0.9173
Normalized toxicity values (HepG2) (HepG2; 3.704 microM): 1.0303
Normalized toxicity values (HepG2) (HepG2; 11.111 microM): 1.1325
Normalized toxicity values (HepG2) (HepG2; 33.333 microM): 1.2425
Normalized toxicity values (HepG2) (HepG2; 100.000 microM): 1.1200
Normalized toxicity values (Hek293T) (Hek293T; 0.005 microM): 1.0215
Normalized toxicity values (Hek293T) (Hek293T; 0.015 microM): 0.8660
Normalized toxicity values (Hek293T) (Hek293T; 0.046 microM): 0.8370
Normalized toxicity values (Hek293T) (Hek293T; 0.137 microM): 0.8375
Normalized toxicity values (Hek293T) (Hek293T; 0.412 microM): 0.8593
Normalized toxicity values (Hek293T) (Hek293T; 1.235 microM): 0.8530
Normalized toxicity values (Hek293T) (Hek293T; 3.704 microM): 0.8778
Normalized toxicity values (Hek293T) (Hek293T; 11.111 microM): 0.9213
Normalized toxicity values (Hek293T) (Hek293T; 33.333 microM): 0.9450
Normalized toxicity values (Hek293T) (Hek293T; 100.000 microM): 0.9233

CCOC(=O)C1=C(c2ccccc2)c2c(n(-c3ccccc3)c(=O)n3c(-c4ccc(OC)cc4)nnc23)NC1C (stereo not shown) [Example 18]
Normalized Wnt pathway (inhibitory) activity (Wnt signalling pathway; 0.005 microM): 0.8680
Normalized Wnt pathway (inhibitory) activity (Wnt signalling pathway; 0.015 microM): 1.1175
Normalized Wnt pathway (inhibitory) activity (Wnt signalling pathway; 0.046 microM): 1.0168
Normalized Wnt pathway (inhibitory) activity (Wnt signalling pathway; 0.137 microM): 1.0825
Normalized Wnt pathway (inhibitory) activity (Wnt signalling pathway; 0.412 microM): 1.1223
Normalized Wnt pathway (inhibitory) activity (Wnt signalling pathway; 1.235 microM): 0.7260
Normalized Wnt pathway (inhibitory) activity (Wnt signalling pathway; 3.704 microM): 0.8798
Normalized Wnt pathway (inhibitory) activity (Wnt signalling pathway; 11.111 microM): 0.6365
Normalized Wnt pathway (inhibitory) activity (Wnt signalling pathway; 33.333 microM): 0.4930
Normalized Wnt pathway (inhibitory) activity (Wnt signalling pathway; 100.000 microM): 0.2505
IC50 (Wnt signalling pathway): 22.1 µM
Normalized cell count (HS68) (human fibroblasts HS-68; 0.005 micoM): 1
Normalized cell count (HS68) (human fibroblasts HS-68; 0.015 micoM): 0.9938
Normalized cell count (HS68) (human fibroblasts HS-68; 0.046 micoM): 1.014
Normalized cell count (HS68) (human fibroblasts HS-68; 0.137 micoM): 0.9488
Normalized cell count (HS68) (human fibroblasts HS-68; 0.412 micoM): 0.9736
Normalized cell count (HS68) (human fibroblasts HS-68; 1.235 micoM): 1.014
Normalized cell count (HS68) (human fibroblasts HS-68; 3.704 micoM): 0.7952
Normalized cell count (HS68) (human fibroblasts HS-68; 11.111 micoM): 0.5499
Normalized cell count (HS68) (human fibroblasts HS-68; 33.333 micoM): 0.3651
Normalized cell count (HS68) (human fibroblasts HS-68; 100.000 micoM): 0.4385
Normalized toxicity values (HepG2) (HepG2; 0.005 microM): 1.1400
Normalized toxicity values (HepG2) (HepG2; 0.015 microM): 1.0110
Normalized toxicity values (HepG2) (HepG2; 0.046 microM): 1.0350
Normalized toxicity values (HepG2) (HepG2; 0.137 microM): 0.9173
Normalized toxicity values (HepG2) (HepG2; 0.412 microM): 0.9185
Normalized toxicity values (HepG2) (HepG2; 1.235 microM): 0.9953
Normalized toxicity values (HepG2) (HepG2; 3.704 microM): 0.9855
Normalized toxicity values (HepG2) (HepG2; 11.111 microM): 1.0800
Normalized toxicity values (HepG2) (HepG2; 33.333 microM): 1.1125
Normalized toxicity values (HepG2) (HepG2; 100.000 microM): 1.1375
Normalized toxicity values (Hek293T) (Hek293T; 0.005 microM): 1.1075
Normalized toxicity values (Hek293T) (Hek293T; 0.015 microM): 1.0110
Normalized toxicity values (Hek293T) (Hek293T; 0.046 microM): 1.0523
Normalized toxicity values (Hek293T) (Hek293T; 0.137 microM): 1.0088
Normalized toxicity values (Hek293T) (Hek293T; 0.412 microM): 1.0313
Normalized toxicity values (Hek293T) (Hek293T; 1.235 microM): 1.0733
Normalized toxicity values (Hek293T) (Hek293T; 3.704 microM): 1.1200
Normalized toxicity values (Hek293T) (Hek293T; 11.111 microM): 1.0825
Normalized toxicity values (Hek293T) (Hek293T; 33.333 microM): 1.1175
Normalized toxicity values (Hek293T) (Hek293T; 100.000 microM): 0.9883
